Measurements published in PubChem BioAssay AID328 (DTP/NCI, 2004).
Several values for one entry are separate records, joined by “and”; a condition that tells them apart may be missing. Identical values can stand only once. Toxic doses and inconclusive results are not listed.

Tested on: BDF1 mice, P388 leukemia ip, median survival T/C
Assay: NCI In Vivo Anticancer Drug Screen. Data for tumor model P388 Leukemia (intraperitoneal) in B6D2F1 (BDF1) mice
Settings: endpoint: median survival time, higher = longer survival
Outline: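 Transplantable tumour in mice; compound vs vehicle dosing; survival scored; ratio of treated to control reported.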

[1] = dose: 100.0 mg/kg/injection, schedule: Q04DX003 (ip), vehicle: saline
[2] = dose: 200.0 mg/kg/injection, schedule: Q04DX003 (ip), vehicle: saline
[3] = dose: 50.0 mg/kg/injection, schedule: Q01DX009 (ip), vehicle: saline with Tween-80
[4] = dose: 100.0 mg/kg/injection, schedule: Q01DX009 (ip), vehicle: saline with Tween-80
[5] = dose: 200.0 mg/kg/injection, schedule: Q01DX009 (ip), vehicle: saline with Tween-80
[6] = dose: 100.0 mg/kg/injection, schedule: Q01DX009 (ip), vehicle: Klucel (hydroxypropylcellulose) (HPC)
[7] = dose: 200.0 mg/kg/injection, schedule: Q01DX009 (ip), vehicle: Klucel (hydroxypropylcellulose) (HPC)
[8] = dose: 400.0 mg/kg/injection, schedule: Q01DX009 (ip), vehicle: Klucel (hydroxypropylcellulose) (HPC)
[9] = dose: 25.0 mg/kg/injection, schedule: Q04DX003 (ip), vehicle: saline with Tween-80
[10] = dose: 50.0 mg/kg/injection, schedule: Q04DX003 (ip), vehicle: saline with Tween-80
[11] = dose: 50.0 mg/kg/injection, schedule: Q04DX003 (ip), vehicle: saline
[12] = dose: 100.0 mg/kg/injection, schedule: Q04DX003 (ip), vehicle: saline with Tween-80
[13] = dose: 200.0 mg/kg/injection, schedule: Q04DX003 (ip), vehicle: saline with Tween-80

With `O=C1c2ccccc2C(=O)N1c1cc(O)cc(O)c1` the T/C (dose: 1.0 mg/kg/injection, schedule: Q01DX009 (ip), vehicle: water) was 109 % of control, the T/C (dose: 2.0 mg/kg/injection, schedule: Q01DX009 (ip), vehicle: water) was 113 % of control and the T/C (dose: 4.0 mg/kg/injection, schedule: Q01DX009 (ip), vehicle: water) was 95 % of control and 98 % of control and 105 % of control. For the same compound, the T/C (dose: 8.0 mg/kg/injection, schedule: Q01DX009 (ip), vehicle: water) was 90 % of control and 95 % of control, the T/C (dose: 16.0 mg/kg/injection, schedule: Q01DX009 (ip), vehicle: water) was 100 % of control and 115 % of control and the T/C (dose: 20.0 mg/kg/injection, schedule: Q01DX009 (ip), vehicle: water) was 101 % of control. For the same compound, the T/C (dose: 32.0 mg/kg/injection, schedule: Q01DX009 (ip), vehicle: water) was 109 % of control, the T/C (dose: 50.0 mg/kg/injection, schedule: Q04DX003 (ip), vehicle: water) was 100 % of control and the T/C (dose: 100.0 mg/kg/injection, schedule: Q04DX003 (ip), vehicle: water) was 106 % of control. The T/C (dose: 200.0 mg/kg/injection, schedule: Q04DX003 (ip), vehicle: water) was 97 % of control and the T/C (dose: 400.0 mg/kg/injection, schedule: Q04DX003 (ip), vehicle: water) was 92 % of control.
In the case of `S=C(S)N1CCOCC1`, the T/C (dose: 100.0 mg/kg/injection, schedule: Q01DX009 (ip), vehicle: saline) is reported as 91 % of control, the T/C [1] is reported as 100 % of control and the T/C (dose: 200.0 mg/kg/injection, schedule: Q01DX009 (ip), vehicle: saline) is reported as 100 % of control. The T/C [2] was 95 % of control, the T/C (dose: 400.0 mg/kg/injection, schedule: Q01DX009 (ip), vehicle: saline) was 95 % of control and the T/C (dose: 400.0 mg/kg/injection, schedule: Q04DX003 (ip), vehicle: saline) was 86 % of control.
For `Cc1c2oc3c(C)ccc(C(=O)NCCCc4ccccc4)c3nc-2c(C(=O)NCCCc2ccccc2)c(N)c1=O`, the T/C (dose: 100.0 mg/kg/injection, schedule: Q04DX002 (ip), vehicle: DMSO) was 100 % of control and the T/C (dose: 200.0 mg/kg/injection, schedule: Q04DX002 (ip), vehicle: DMSO) was 90 % of control.
`Nc1ccccc1C(=O)Nc1ncn[nH]1` was tested, and the T/C [3] was 96 % of control, the T/C [4] was 90 % of control and the T/C [5] was 94 % of control.
`CCCC(=O)Nc1ccc(NS(C)(=O)=O)cc1OC` was tested, and the T/C [6] was 95 % of control, the T/C (dose: 100.0 mg/kg/injection, schedule: Q04DX003 (ip), vehicle: Klucel (hydroxypropylcellulose) (HPC)) was 100 % of control and the T/C [7] was 90 % of control. For the same compound, the T/C (dose: 200.0 mg/kg/injection, schedule: Q04DX003 (ip), vehicle: Klucel (hydroxypropylcellulose) (HPC)) was 95 % of control and the T/C [8] was 90 % of control.
In the case of `Cc1ccc(C)c(C(C)NC2=NCCO2)c1` (configuration not stated), the T/C [9] is reported as 90 % of control and the T/C [10] is reported as 90 % of control.
In the case of `CNC1(c2ccccc2)C(=O)CC2CCC1C2` (configuration not stated), the T/C (dose: 25.0 mg/kg/injection, schedule: Q01DX001 (ip), vehicle: Klucel (hydroxypropylcellulose) (HPC)) is reported as 105 % of control, the T/C (dose: 50.0 mg/kg/injection, schedule: Q01DX001 (ip), vehicle: Klucel (hydroxypropylcellulose) (HPC)) is reported as 105 % of control and the T/C (dose: 100.0 mg/kg/injection, schedule: Q01DX001 (ip), vehicle: Klucel (hydroxypropylcellulose) (HPC)) is reported as 100 % of control.
With `N#Cc1cnn(C(N)=S)c1N` the T/C (dose: 25.0 mg/kg/injection, schedule: Q04DX003 (ip), vehicle: saline) was 104 % of control, the T/C [11] was 104 % of control and the T/C [1] was 100 % of control.
In the case of `[CH3][Hg][O]C(C)=O`, the T/C (dose: 3.12 mg/kg/injection, schedule: Q01DX009 (ip), vehicle: Klucel (hydroxypropylcellulose) (HPC)) is reported as 107 % of control and the T/C (dose: 6.25 mg/kg/injection, schedule: Q01DX009 (ip), vehicle: Klucel (hydroxypropylcellulose) (HPC)) is reported as 113 % of control.
In the case of `C(=Nc1ccc2c(c1)Cc1ccccc1-2)c1ccccc1`, the T/C (dose: 50.0 mg/kg/injection, schedule: Q01DX009 (ip), vehicle: Klucel (hydroxypropylcellulose) (HPC)) is reported as 90 % of control, the T/C [6] is reported as 109 % of control and the T/C [7] is reported as 100 % of control.
For `CCCC(C)C(C)CC` (configuration not stated), the T/C (dose: 6.25 mg/kg/injection, schedule: Q01DX001 (ip), vehicle: saline with Tween-80) was 91 % of control, the T/C (dose: 12.5 mg/kg/injection, schedule: Q01DX001 (ip), vehicle: saline with Tween-80) was 104 % of control and the T/C (dose: 25.0 mg/kg/injection, schedule: Q01DX001 (ip), vehicle: saline with Tween-80) was 116 % of control.
With `COc1ccc(OC)c(/C=C/c2ccc3ccccc3n2)c1` the T/C [10] was 105 % of control, the T/C [12] was 100 % of control and 105 % of control and the T/C [13] was 110 % of control. The T/C (dose: 400.0 mg/kg/injection, schedule: Q04DX003 (ip), vehicle: saline with Tween-80) was 100 % of control.
With `C=CC(COC(=O)C(C)(C)OC(C)=O)c1ccc(OC(=O)C(C)C)c(OC)c1` (configuration not stated) the T/C (dose: 1.56 mg/kg/injection, schedule: Q01DX009 (ip), vehicle: saline) was 119 % of control, the T/C (dose: 3.13 mg/kg/injection, schedule: Q01DX009 (ip), vehicle: saline) was 100 % of control and the T/C (dose: 6.25 mg/kg/injection, schedule: Q01DX009 (ip), vehicle: saline) was 103 % of control. The T/C (dose: 12.5 mg/kg/injection, schedule: Q01DX009 (ip), vehicle: saline) was 100 % of control.
In the case of `CC(C)CC(Br)C(=O)NCC(=O)NC(Cc1ccccc1)C(=O)O` (configuration not stated), the T/C [10] is reported as 95 % of control, the T/C [12] is reported as 100 % of control and the T/C [13] is reported as 95 % of control.
In the case of `COc1ccc2nc3cc(Cl)ccc3c(NCCO)c2c1`, the T/C (dose: 37.5 mg/kg/injection, schedule: Q01DX010 (ip), vehicle: saline) is reported as 100 % of control, the T/C (dose: 75.0 mg/kg/injection, schedule: Q01DX010 (ip), vehicle: saline) is reported as 100 % of control and the T/C (dose: 150.0 mg/kg/injection, schedule: Q01DX010 (ip), vehicle: saline) is reported as 100 % of control.
In the case of `COc1cc(N/C(N)=N\C(N)=NC(C)C)cc(OC)c1OC`, the T/C (dose: 100.0 mg/kg/injection, schedule: Q04DX003 (ip), vehicle: saline sonified) is reported as 95 % of control.
With `CCCCCCC#CC(=O)OC` the T/C (dose: 25.0 mg/kg/injection, schedule: Q01DX009 (ip), vehicle: saline with Tween-80) was 106 % of control, the T/C [3] was 106 % of control and the T/C [4] was 109 % of control. For the same compound, the T/C [5] was 106 % of control.
For `O=C1OI(OI2OC(=O)c3ccccc32)c2ccccc21` (tested in a mixture with another compound), the T/C (dose: 50.0 mg/kg/injection, schedule: Q01DX001 (ip), vehicle: saline with Tween-80) was 101 % of control, the T/C (dose: 100.0 mg/kg/injection, schedule: Q01DX001 (ip), vehicle: saline with Tween-80) was 101 % of control and 103 % of control and the T/C (dose: 200.0 mg/kg/injection, schedule: Q01DX001 (ip), vehicle: saline with Tween-80) was 108 % of control and 120 % of control. The T/C (dose: 400.0 mg/kg/injection, schedule: Q01DX001 (ip), vehicle: saline with Tween-80) was 117 % of control and 124 % of control.
For `C=C1C(=O)OC2CC(C)C3(O)OC(C)(CC(OC(=O)C(C)C)C12)CC3O` (configuration not stated), the T/C (dose: 13.0 mg/kg/injection, schedule: Q01DX009 (ip), vehicle: saline) was 120 % of control, the T/C (dose: 25.0 mg/kg/injection, schedule: Q01DX009 (ip), vehicle: saline) was 110 % of control and the T/C (dose: 50.0 mg/kg/injection, schedule: Q01DX009 (ip), vehicle: saline) was 95 % of control.
In the case of `COc1cc2c(c(OC)c1OC)-c1ccc(SCc3ccccc3)c(=O)cc1[C@@H](NC(C)=O)CC2`, the T/C (dose: 8.2 mg/kg/injection, schedule: Q01DX009 (ip), vehicle: Klucel (hydroxypropylcellulose) (HPC)) is reported as 117 % of control and the T/C (dose: 12.5 mg/kg/injection, schedule: Q01DX009 (ip), vehicle: Klucel (hydroxypropylcellulose) (HPC)) is reported as 170 % of control.
For `C/C1=C/C2=CC(C)C[C@@H]2C(=O)[C@]2(C)C(=O)CC(C)(C)[C@H]2CC1=O` (some centres not stated), the T/C (dose: 0.12 mg/kg/injection, schedule: Q01DX009 (ip), vehicle: alcohol) was 106 % of control, the T/C (dose: 0.25 mg/kg/injection, schedule: Q01DX009 (ip), vehicle: alcohol) was 122 % of control and the T/C (dose: 1.4 mg/kg/injection, schedule: Q01DX009 (ip), vehicle: alcohol) was 108 % of control. The T/C (dose: 2.2 mg/kg/injection, schedule: Q01DX009 (ip), vehicle: alcohol) was 110 % of control.
For `O=C(CC(O)(C(F)(F)F)C(F)(F)F)c1ccc(F)cc1`, the T/C (dose: 100.0 mg/kg/injection, schedule: Q04DX003 (ip), vehicle: other) was 120 % of control.
For `CCOC(=O)CCSc1ccccc1`, the T/C [9] was 98 % of control and the T/C [10] was 95 % of control.
For `CN(C)NP(=O)(NN(C)C)N(C)C`, the T/C [11] was 100 % of control, the T/C [1] was 113 % of control and the T/C [2] was 95 % of control.
With `OC(Cc1ccccc1)(c1ccccc1)c1cccc2ccccc12` (configuration not stated) the T/C [6] was 100 % of control, the T/C [7] was 100 % of control and the T/C [8] was 104 % of control.
For `O=c1[nH]c2nc(Cl)c(Cl)nc2[nH]1`, the T/C [11] was 113 % of control, the T/C [1] was 106 % of control and the T/C [2] was 111 % of control.
